Measured values taken from US20230271964A1, “5-AMINO-8-(4-PYRIDYL)-[1,2,4]TRIAZOLO[4,3-C]PYRIMIDIN-3-ONE COMPOUNDS FOR USE AGAINST CANCER” (ASTRAZENECA AB, priority 2020, published 2023).

Legend:
[1] = molecular target: human adenosine A1 receptor (Homo sapiens (Human), UniProt P30542); assay: Adenosine receptor inhibition binding assay, [3H]DPCPX, A1 receptor membranes; details: 1 nM [3H]DPCPX, 25° C., 1 h, Ki from IC50 by Cheng-Prusoff
Experimental: (§1) Inhibition binding assays were performed using 0.2 µg of membranes prepared from HEK293 cells infected with BacMam human adenosine A2A receptor or 1.4 µg of membranes prepared from HEK293 cells infected with BacMam human adenosine A1 receptor. Membranes were incubated in 50 mM Tris-HCl (HEK293-hA2A; pH 7.4) or 50 mM Tris-HCl, 100 mM NaCl, 10 mM MgCl2 (CHO-hA1; pH 7.4) in the presence of varying concentrations of test compound and 1 nM [^3H]ZM241385 (HEK293-hA2A) or [^3H]DPCPX (CHO-hA1) at 25° C. for 1 h. The assay was then terminated by rapid filtration onto GF/B grade Unifilter plates using a TomTec cell harvester, followed by 5 × 0.5 ml washes with ddH2O. Nonspecific binding was defined in the presence of 1 µM CGS 15943 (HEK293-hA2A) or 1 µM DPCPX (CHO-hA1). Bound radioactivity was determined by liquid scintillation counting and inhibition curves were analysed using a four-parameter logistic equation. IC50 values were converted to Ki values with the Cheng-Prusoff equation using a KD value derived from saturation binding studies.

[2] = molecular target: human adenosine A2A receptor (Homo sapiens (Human), UniProt P29274); assay: Adenosine receptor inhibition binding assay, [3H]ZM241385, HEK293 A2A receptor membranes; details: 1 nM [3H]ZM241385, HEK293-hA2A membranes, 25° C., 1 h, Ki from IC50 by Cheng-Prusoff
Chain of human adenosine A2A receptor (P29274 whole entry): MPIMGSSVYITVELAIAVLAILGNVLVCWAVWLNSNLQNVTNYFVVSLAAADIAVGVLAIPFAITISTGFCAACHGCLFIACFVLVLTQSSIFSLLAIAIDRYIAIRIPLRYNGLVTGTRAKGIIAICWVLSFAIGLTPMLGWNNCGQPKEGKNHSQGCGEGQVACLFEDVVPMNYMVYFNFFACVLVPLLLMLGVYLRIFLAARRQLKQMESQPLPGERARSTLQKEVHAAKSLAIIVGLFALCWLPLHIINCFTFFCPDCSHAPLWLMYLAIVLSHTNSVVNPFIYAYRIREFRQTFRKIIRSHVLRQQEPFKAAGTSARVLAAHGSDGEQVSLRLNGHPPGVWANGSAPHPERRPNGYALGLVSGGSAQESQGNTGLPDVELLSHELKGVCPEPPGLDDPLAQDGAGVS
Experimental: as §1

Chain of human adenosine A1 receptor (P30542 whole entry): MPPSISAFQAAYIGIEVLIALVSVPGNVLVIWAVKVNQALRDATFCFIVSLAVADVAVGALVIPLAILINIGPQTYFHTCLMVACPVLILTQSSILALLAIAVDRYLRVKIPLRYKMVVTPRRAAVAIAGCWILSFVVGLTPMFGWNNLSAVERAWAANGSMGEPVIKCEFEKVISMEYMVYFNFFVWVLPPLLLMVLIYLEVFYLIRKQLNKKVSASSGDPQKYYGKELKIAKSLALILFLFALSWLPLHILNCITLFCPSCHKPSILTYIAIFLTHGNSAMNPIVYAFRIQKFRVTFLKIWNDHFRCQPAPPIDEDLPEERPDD

Ki ([1]; read-out: A1 pKi (converted)) | Ki ([2]; read-out: A2A pKi (converted)) | A1 pKi [1] | A2A pKi [2] | Structure (SMILES)
– | – | 6.3 | 8.2 | COCCN1CCC[C@@H]1Cn1nc2c(-c3cc(C)nc(C)c3)c(-c3ccccc3)nc(N)n2c1=O [Example 2-10, 5-amino-8-(2,6-dimethyl-4-pyridyl)-2-[[(2R)-1-(2-methoxyethyl)pyrrolidin-2-yl]methyl]-7-phenyl-[1,2,4]triazolo[4,3-c]pyrimidin-3-one]
– | – | 6.0 | 8.7 | Cc1cc(-c2c(-c3ccccc3)nc(N)n3c(=O)n(C[C@@H]4CC(F)(F)CN4)nc23)cc(C)n1 [Example 2-11, 5-amino-2-[[(2S)-4,4-difluoropyrrolidin-2-yl]methyl]-8-(2,6-dimethyl-4-pyridyl)-7-phenyl-[1,2,4]triazolo[4,3-c]pyrimidin-3-one]
– | – | 6.4 | 8.1 | Cc1cc(-c2c(-c3ccccc3)nc(N)n3c(=O)n(C[C@H]4CC(F)(F)CN4)nc23)cc(C)n1 [Example 2-12, 5-amino-2-[[(2R)-4,4-difluoropyrrolidin-2-yl]methyl]-8-(2,6-dimethyl-4-pyridyl)-7-phenyl-[1,2,4]triazolo[4,3-c]pyrimidin-3-one]
– | – | 6.3 | 8.2 | Cc1cc(-c2c(-c3ccccc3)nc(N)n3c(=O)n(C[C@@H]4CC(F)(F)CN4C)nc23)cc(C)n1 [Example 2-13, 5-amino-2-[[(2S)-4,4-difluoro-1-methyl-pyrrolidin-2-yl]methyl]-8-(2,6-dimethyl-4-pyridyl)-7-phenyl-[1,2,4]triazolo[4,3-c]pyrimidin-3-one]
– | – | 6.7 | 9.2 | Cc1cc(-c2c(-c3ccccc3)nc(N)n3c(=O)n(C[C@H]4CCCO4)nc23)cc(C)n1 [Example 2-16, 5-amino-8-(2,6-dimethyl-4-pyridyl)-7-phenyl-2-[[(2R)-tetrahydrofuran-2-yl]methyl]-[1,2,4]triazolo[4,3-c]pyrimidin-3-one]
– | – | 6.4 | 8.2 | Cc1cc(-c2c(-c3ccccc3)nc(N)n3c(=O)n(C[C@H]4C[C@H](F)CN4)nc23)cc(C)n1 [Example 2-18, 5-amino-8-(2,6-dimethyl-4-pyridyl)-2-[[(2R,4S)-4-fluoropyrrolidin-2-yl]methyl]-7-phenyl-[1,2,4]triazolo[4,3-c]pyrimidin-3-one]
– | – | 6.2 | 8.0 | Cc1cc(-c2c(-c3ccccc3)nc(N)n3c(=O)n(C[C@H]4C[C@@H](F)CN4)nc23)cc(C)n1 [Example 2-19, 5-amino-8-(2,6-dimethyl-4-pyridyl)-2-[[(2R,4R)-4-fluoropyrrolidin-2-yl]methyl]-7-phenyl-[1,2,4]triazolo[4,3-c]pyrimidin-3-one]
– | – | 6.3 | 8.5 | Cc1cc(-c2c(-c3ccccc3)nc(N)n3c(=O)n(C[C@@H]4C[C@H](F)CN4)nc23)cc(C)n1 [Example 2-20, 5-amino-8-(2,6-dimethyl-4-pyridyl)-2-[[(2S,4S)-4-fluoropyrrolidin-2-yl]methyl]-7-phenyl-[1,2,4]triazolo[4,3-c]pyrimidin-3-one]
– | – | 6.4 | 8.4 | Cc1cc(-c2c(-c3ccccc3)nc(N)n3c(=O)n(C[C@@H]4C[C@@H](F)CN4)nc23)cc(C)n1 [Example 2-21, 5-amino-8-(2,6-dimethyl-4-pyridyl)-2-[[(2S,4R)-4-fluoropyrrolidin-2-yl]methyl]-7-phenyl-[1,2,4]triazolo[4,3-c]pyrimidin-3-one]
– | – | 5.9 | 8.2 | Cc1cc(-c2c(-c3ccccc3)nc(N)n3c(=O)n(C[C@@H]4C[C@H](O)CN4)nc23)cc(C)n1 [Example 2-22, 5-amino-8-(2,6-dimethyl-4-pyridyl)-2-[[(2S,4S)-4-hydroxypyrrolidin-2-yl]methyl]-7-phenyl-[1,2,4]triazolo[4,3-c]pyrimidin-3-one]
– | – | 5.9 | 8.2 | Cc1cc(-c2c(-c3ccccc3)nc(N)n3c(=O)n(C[C@H]4C[C@@H](O)CN4)nc23)cc(C)n1 [Example 2-23, 5-amino-8-(2,6-dimethyl-4-pyridyl)-2-[[(2R,4R)-4-hydroxypyrrolidin-2-yl]methyl]-7-phenyl-[1,2,4]triazolo[4,3-c]pyrimidin-3-one]
– | – | <5.7 | 6.9 | Cc1cc(-c2c(-c3ccccc3)nc(N)n3c(=O)n(CCN4CCCC4)nc23)cc(C)n1 [Example 2-26, 5-amino-8-(2,6-dimethyl-4-pyridyl)-7-phenyl-2-(2-pyrrolidin-1-ylethyl)-[1,2,4]triazolo[4,3-c]pyrimidin-3-one]
– | – | 6.7 | 9.6 | COc1cc(-c2c(-c3ccccc3)nc(N)n3c(=O)n(C[C@H]4CCCO4)nc23)cc(C)n1 [Example 2-27, 5-amino-8-(2-methoxy-6-methyl-4-pyridyl)-7-phenyl-2-[[(2R)-tetrahydrofuran-2-yl]methyl]-[1,2,4]triazolo[4,3-c]pyrimidin-3one]

The next lines start with the molecule.

Structure (SMILES) | Ki ([1]; read-out: A1 pKi (converted)) | Ki ([2]; read-out: A2A pKi (converted)) | A1 pKi [1] | A2A pKi [2]
[2H]c1c([2H])c([2H])c(-c2nc(N)n3c(=O)n(Cc4ncoc4C)nc3c2-c2cc(CO)nc(OC)c2)c([2H])c1[2H] [Example 1-63, 5-amino-8-[2-(hydroxymethyl)-6-methoxy-4-pyridyl]-2-[(5-methyloxazol-4-yl)methyl]-7-(2,3,4,5,6-pentadeuteriophenyl)-[1,2,4]triazolo[4,3-c]pyrimidin-3-one] | 316 nM | 0.0794 nM | – | –
COc1cc(-c2c(-c3ccc(F)cc3)nc(N)n3c(=O)n(Cc4nccn4C)nc23)cc(CO)n1 [Example 1-65, 5-amino-7-(4-fluorophenyl)-8-[2-(hydroxymethyl)-6-methoxy-4-pyridyl]-2-[(1-methylimidazol-2-yl)methyl]-[1,2,4]triazolo[4,3-c]pyrimidin-3-one] | – | – | 7.1 | 10.0
Cc1cc(-c2c(-c3ccccc3)nc(N)n3c(=O)n(C4CCN(C(=O)OC(C)(C)C)C4)nc23)cc(C)n1 (stereo not drawn) [Example 2-1, tert-butyl 3-[5-amino-8-(2,6-dimethyl-4-pyridyl)-3-oxo-7-phenyl-[1,2,4]triazolo[4,3-c]pyrimidin-2-yl]pyrrolidine-1-carboxylate] | – | – | 6.8 | 7.7
Cc1cc(-c2c(-c3ccccc3)nc(N)n3c(=O)n(C4CCNC4)nc23)cc(C)n1 (stereo not drawn) [Example 2-2, 5-amino-8-(2,6-dimethyl-4-pyridyl)-7-phenyl-2-pyrrolidin-3-yl-[1,2,4]triazolo[4,3-c]pyrimidin-3-one] | – | – | 5.7 | 7.4
Cc1cc(-c2c(-c3ccccc3)nc(N)n3c(=O)n(C4CCN(C)C4)nc23)cc(C)n1 (stereo not drawn) [Example 2-3, 5-amino-8-(2,6-dimethyl-4-pyridyl)-2-(1-methylpyrrolidin-3-yl)-7-phenyl-[1,2,4]triazolo[4,3-c]pyrimidin-3-one] | – | – | 6.1 | 7.8
Cc1cc(-c2c(-c3ccccc3)nc(N)n3c(=O)n(CC4CCCN4C(=O)OC(C)(C)C)nc23)cc(C)n1 (stereo not drawn) [Example 2-4, tert-butyl 2-[[5-amino-8-(2,6-dimethyl-4-pyridyl)-3-oxo-7-phenyl-[1,2,4]triazolo[4,3-c]pyrimidin-2-yl]methyl]pyrrolidine-1-carboxylate] | – | – | 6.6 | 7.9
Cc1cc(-c2c(-c3ccccc3)nc(N)n3c(=O)n(CC4CCCN4)nc23)cc(C)n1 (stereo not drawn) [Example 2-5, 5-amino-8-(2,6-dimethyl-4-pyridyl)-7-phenyl-2-(pyrrolidin-2-ylmethyl)-[1,2,4]triazolo[4,3-c]pyrimidin-3-one] | – | – | 6.1 | 7.4
Cc1cc(-c2c(-c3ccccc3)nc(N)n3c(=O)n(CC4CCCN4C)nc23)cc(C)n1 (stereo not drawn) [Example 2-6, 5-amino-8-(2,6-dimethyl-4-pyridyl)-2-[(1-methylpyrrolidin-2-yl)methyl]-7-phenyl-[1,2,4]triazolo[4,3-c]pyrimidin-3-one] | – | – | 6.2 | 9.1
Cc1cc(-c2c(-c3ccccc3)nc(N)n3c(=O)n(C[C@H]4CCCN4C)nc23)cc(C)n1 [Example 2-7, 5-amino-8-(2,6-dimethyl-4-pyridyl)-2-[[(2R)-1-methylpyrrolidin-2-yl]methyl]-7-phenyl-[1,2,4]triazolo[4,3-c]pyrimidin-3-one] | – | – | 7.4 | 9.3
Cc1cc(-c2c(-c3ccccc3)nc(N)n3c(=O)n(C[C@@H]4CCCN4C)nc23)cc(C)n1 [Example 2-8, 5-amino-8-(2,6-dimethyl-4-pyridyl)-2-[[(2S)-1-methylpyrrolidin-2-yl]methyl]-7-phenyl-[1,2,4]triazolo[4,3-c]pyrimidin-3-one] | – | – | 6.8 | 9.0
COCCN1CCC[C@H]1Cn1nc2c(-c3cc(C)nc(C)c3)c(-c3ccccc3)nc(N)n2c1=O [Example 2-9, 5-amino-8-(2,6-dimethyl-4-pyridyl)-2-[[(2S)-1-(2-methoxyethyl)pyrrolidin-2-yl]methyl]-7-phenyl-[1,2,4]triazolo[4,3-c]pyrimidin-3-one] | – | – | 6.1 | 8.4
